Data: the kinase profiling compilation of Christmann-Franck et al. (2016)

Assays:
Assay in all cases: radiometric filter-binding kinase assay, Kinase HotSpot
Conditions in all cases: compound 0.5 µM; ATP 10 µM
[1] = target: NEK7 (human) (UniProt Q8TDX7)
[2] = target: ADRBK2 (human) (UniProt P35626)
[3] = target: CHEK1 (human) (UniProt O14757)
[4] = target: CDK1 CCNA2 (human) (UniProt P06493+P20248)
[5] = target: CLK2 (human) (UniProt P49760)
[6] = test system: FLT4 (human), P35916 [Q890H]
[7] = target: AURKC (human) (UniProt Q9UQB9)
[8] = target: PRKCI (human) (UniProt P41743)
[9] = target: MELK (human) (UniProt Q14680)
[10] = target: ACVRL1 (human) (UniProt P37023)
[11] = target: PRKCA (human) (UniProt P17252)
[12] = target: PRKCZ (human) (UniProt Q05513)
[13] = target: NEK2 (human) (UniProt P51955)
[14] = target: PTK2B (human) (UniProt Q14289)
[15] = target: FLT1 (human) (UniProt P17948)
[16] = target: DYRK3 (human) (UniProt O43781)
[17] = target: EPHA3 (human) (UniProt P29320)
[18] = target: RPS6KB1 (human) (UniProt P23443)
[19] = target: CSNK1G1 (human) (UniProt Q9HCP0)
[20] = target: STK25 (human) (UniProt O00506)
[21] = target: FGR (human) (UniProt P09769)
[22] = target: ROS1 (human) (UniProt P08922)
[23] = test system: PRKCQ (human), Q04759 [P330L]
[24] = target: PAK3 (human) (UniProt O75914)
[25] = target: SGK2 (human) (UniProt Q9HBY8)
[26] = target: TYRO3 (human) (UniProt Q06418)
[27] = target: RPS6KA4 KD2 (human) (UniProt O75676)
[28] = target: AURKB (human) (UniProt Q96GD4)
[29] = target: IRAK1 (human) (UniProt P51617)
[30] = target: PNCK (human) (UniProt Q6P2M8)
[31] = target: CAMK2G (human) (UniProt Q13555)
[32] = target: NLK (human) (UniProt Q9UBE8)
[33] = target: DAPK1 (human) (UniProt P53355)
[34] = target: MST1R (human) (UniProt Q04912)
[35] = target: ITK (human) (UniProt Q08881)
[36] = target: IRAK4 (human) (UniProt Q9NWZ3)
[37] = target: KIT (human) (UniProt P10721)
[38] = target: HCK (human) (UniProt P08631)
[39] = target: CAMK1 (human) (UniProt Q14012)
[40] = target: VRK1 (human) (UniProt Q99986)
[41] = target: MYLK (human) (UniProt Q15746)
[42] = test system: MAP2K6 (human), P52564 [S207E/T211E]

Sequence of AURKC (human) (Q9UQB9 whole entry, looked up): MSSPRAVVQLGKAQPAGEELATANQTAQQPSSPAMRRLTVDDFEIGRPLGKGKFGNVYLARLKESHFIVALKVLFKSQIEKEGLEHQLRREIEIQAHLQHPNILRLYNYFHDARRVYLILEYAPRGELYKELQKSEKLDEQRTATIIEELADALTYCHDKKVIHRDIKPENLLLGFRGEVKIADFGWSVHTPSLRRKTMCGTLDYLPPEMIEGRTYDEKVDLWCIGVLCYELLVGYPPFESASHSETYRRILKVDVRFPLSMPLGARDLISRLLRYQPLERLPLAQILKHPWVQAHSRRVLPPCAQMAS
Sequence of PRKCQ (human), Q04759 [P330L] (Q04759 whole entry P330L, looked up): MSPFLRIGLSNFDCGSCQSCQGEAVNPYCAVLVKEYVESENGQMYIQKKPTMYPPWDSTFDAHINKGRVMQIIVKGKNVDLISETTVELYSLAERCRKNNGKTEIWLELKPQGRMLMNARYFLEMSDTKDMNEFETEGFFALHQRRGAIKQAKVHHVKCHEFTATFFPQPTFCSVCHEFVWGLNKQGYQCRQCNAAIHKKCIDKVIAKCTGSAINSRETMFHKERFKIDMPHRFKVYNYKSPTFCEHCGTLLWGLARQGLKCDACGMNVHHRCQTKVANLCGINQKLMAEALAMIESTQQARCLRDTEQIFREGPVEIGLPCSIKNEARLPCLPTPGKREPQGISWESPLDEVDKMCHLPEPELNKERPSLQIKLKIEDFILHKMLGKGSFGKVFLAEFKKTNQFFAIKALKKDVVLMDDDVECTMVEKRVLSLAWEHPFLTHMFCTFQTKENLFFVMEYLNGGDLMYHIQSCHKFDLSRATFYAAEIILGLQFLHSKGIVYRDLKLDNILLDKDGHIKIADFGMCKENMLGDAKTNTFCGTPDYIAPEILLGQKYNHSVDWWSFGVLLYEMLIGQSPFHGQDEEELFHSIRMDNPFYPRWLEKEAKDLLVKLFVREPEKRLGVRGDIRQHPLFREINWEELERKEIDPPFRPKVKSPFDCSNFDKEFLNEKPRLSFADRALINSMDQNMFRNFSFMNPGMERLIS
Sequence of DYRK3 (human) (O43781 whole entry, looked up): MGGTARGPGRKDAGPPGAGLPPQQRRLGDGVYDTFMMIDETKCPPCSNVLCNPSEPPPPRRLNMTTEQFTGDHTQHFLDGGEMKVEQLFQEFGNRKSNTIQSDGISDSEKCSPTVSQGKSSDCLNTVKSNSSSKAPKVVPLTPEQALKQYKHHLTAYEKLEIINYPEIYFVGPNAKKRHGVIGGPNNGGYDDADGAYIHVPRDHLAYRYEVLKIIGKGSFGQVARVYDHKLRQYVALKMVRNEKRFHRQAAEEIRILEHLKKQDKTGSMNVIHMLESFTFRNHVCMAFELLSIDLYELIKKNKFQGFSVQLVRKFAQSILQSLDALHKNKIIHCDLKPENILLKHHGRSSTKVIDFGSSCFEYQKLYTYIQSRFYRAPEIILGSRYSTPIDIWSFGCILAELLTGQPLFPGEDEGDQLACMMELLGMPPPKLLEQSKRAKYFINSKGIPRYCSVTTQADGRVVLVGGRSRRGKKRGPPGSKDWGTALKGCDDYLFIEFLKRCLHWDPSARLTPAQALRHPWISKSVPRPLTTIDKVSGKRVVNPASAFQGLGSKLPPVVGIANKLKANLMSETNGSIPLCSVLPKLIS
Sequence of AURKB (human) (Q96GD4 whole entry, looked up): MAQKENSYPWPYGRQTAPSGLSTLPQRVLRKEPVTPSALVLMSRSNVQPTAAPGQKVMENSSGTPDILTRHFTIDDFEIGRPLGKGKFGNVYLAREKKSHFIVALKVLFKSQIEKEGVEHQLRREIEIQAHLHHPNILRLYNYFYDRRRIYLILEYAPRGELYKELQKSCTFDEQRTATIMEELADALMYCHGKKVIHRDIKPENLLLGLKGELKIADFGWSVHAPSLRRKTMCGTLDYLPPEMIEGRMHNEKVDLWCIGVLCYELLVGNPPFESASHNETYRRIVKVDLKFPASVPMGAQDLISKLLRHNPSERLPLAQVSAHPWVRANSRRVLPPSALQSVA
Sequence of FGR (human) (P09769 whole entry, looked up): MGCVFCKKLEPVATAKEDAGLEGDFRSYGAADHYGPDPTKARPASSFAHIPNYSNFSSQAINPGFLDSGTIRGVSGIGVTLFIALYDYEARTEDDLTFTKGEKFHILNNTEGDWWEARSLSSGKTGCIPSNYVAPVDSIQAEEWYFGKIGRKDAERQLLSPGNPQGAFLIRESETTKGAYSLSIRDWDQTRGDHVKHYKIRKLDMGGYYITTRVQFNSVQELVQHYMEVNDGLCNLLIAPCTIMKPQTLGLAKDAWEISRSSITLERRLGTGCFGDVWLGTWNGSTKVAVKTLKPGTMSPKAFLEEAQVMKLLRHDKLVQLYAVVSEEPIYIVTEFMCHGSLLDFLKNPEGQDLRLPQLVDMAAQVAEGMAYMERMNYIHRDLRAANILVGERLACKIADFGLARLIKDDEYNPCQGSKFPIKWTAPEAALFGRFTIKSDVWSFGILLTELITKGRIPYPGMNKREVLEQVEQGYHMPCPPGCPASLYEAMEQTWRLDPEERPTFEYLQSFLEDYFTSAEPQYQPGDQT
Sequence of NEK2 (human) (P51955 whole entry, looked up): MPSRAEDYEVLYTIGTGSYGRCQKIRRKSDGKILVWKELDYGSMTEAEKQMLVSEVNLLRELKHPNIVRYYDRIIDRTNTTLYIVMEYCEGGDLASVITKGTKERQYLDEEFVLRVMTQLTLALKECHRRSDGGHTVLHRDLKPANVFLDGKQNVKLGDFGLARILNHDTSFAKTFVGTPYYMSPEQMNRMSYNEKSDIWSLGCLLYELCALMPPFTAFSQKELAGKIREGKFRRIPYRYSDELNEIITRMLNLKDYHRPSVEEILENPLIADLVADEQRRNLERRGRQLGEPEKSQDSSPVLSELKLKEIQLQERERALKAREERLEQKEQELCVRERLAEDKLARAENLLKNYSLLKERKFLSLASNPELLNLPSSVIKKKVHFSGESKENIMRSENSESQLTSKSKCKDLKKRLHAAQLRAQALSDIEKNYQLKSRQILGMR
Sequence of IRAK4 (human) (Q9NWZ3 whole entry, looked up): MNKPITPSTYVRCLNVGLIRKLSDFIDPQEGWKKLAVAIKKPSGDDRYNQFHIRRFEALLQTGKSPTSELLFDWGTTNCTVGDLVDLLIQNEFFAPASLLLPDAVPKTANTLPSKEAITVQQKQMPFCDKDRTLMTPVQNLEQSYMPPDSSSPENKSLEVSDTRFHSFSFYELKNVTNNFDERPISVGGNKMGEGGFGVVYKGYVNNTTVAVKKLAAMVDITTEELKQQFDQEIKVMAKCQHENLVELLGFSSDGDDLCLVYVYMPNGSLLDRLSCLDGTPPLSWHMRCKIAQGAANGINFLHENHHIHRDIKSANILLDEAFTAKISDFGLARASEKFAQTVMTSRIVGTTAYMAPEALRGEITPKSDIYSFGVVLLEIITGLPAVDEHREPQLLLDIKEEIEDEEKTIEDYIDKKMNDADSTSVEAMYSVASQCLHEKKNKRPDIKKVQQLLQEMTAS
Sequence of PRKCI (human) (P41743 whole entry, looked up): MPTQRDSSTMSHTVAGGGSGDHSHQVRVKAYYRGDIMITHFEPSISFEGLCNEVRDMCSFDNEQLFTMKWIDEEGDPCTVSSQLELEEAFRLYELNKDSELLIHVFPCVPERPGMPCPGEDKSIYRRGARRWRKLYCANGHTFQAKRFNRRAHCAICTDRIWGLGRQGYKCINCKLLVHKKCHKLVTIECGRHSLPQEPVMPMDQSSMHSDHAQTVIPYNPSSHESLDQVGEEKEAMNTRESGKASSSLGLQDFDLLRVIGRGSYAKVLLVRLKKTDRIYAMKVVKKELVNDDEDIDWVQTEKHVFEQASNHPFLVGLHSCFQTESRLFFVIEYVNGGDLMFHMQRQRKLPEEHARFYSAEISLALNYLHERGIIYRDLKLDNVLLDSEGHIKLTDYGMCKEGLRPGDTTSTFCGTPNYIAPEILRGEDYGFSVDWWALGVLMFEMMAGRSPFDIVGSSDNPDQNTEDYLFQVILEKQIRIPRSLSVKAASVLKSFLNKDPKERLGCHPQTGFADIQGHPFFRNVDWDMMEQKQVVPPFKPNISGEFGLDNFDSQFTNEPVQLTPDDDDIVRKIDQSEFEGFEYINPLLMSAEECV
Sequence of HCK (human) (P08631 whole entry, looked up): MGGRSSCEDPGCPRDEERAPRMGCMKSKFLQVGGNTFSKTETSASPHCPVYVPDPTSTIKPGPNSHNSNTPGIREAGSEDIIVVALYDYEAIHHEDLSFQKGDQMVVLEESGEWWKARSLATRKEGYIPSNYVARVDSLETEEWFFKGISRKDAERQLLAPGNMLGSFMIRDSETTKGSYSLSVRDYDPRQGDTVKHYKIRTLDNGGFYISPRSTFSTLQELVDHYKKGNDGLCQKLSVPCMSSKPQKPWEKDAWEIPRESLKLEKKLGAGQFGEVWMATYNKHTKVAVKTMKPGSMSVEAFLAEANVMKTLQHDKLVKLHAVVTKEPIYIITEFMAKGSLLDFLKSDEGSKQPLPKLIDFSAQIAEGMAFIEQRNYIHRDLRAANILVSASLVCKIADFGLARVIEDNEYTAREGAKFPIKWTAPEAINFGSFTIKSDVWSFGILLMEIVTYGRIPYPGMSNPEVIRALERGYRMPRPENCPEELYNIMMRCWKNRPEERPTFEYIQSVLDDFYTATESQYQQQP
Sequence of CHEK1 (human) (O14757 whole entry, looked up): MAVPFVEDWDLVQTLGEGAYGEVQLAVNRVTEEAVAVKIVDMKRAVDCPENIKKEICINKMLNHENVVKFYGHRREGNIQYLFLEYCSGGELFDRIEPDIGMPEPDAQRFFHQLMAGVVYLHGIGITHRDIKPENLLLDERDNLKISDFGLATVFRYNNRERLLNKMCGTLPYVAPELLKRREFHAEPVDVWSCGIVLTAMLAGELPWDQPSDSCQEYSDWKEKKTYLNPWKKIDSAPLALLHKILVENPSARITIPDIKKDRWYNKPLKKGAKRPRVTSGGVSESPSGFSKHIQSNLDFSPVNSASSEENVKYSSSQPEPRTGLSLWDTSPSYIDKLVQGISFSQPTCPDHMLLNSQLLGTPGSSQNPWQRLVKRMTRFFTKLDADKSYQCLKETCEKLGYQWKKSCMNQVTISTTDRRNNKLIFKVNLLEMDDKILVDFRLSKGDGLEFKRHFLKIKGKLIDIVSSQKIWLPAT

CN(C)c1ccc(/C=C2\C(=O)Nc3ccccc32)cc1
residual activity [1]: 102% | residual activity [2]: 98.9% | residual activity [3]: 98.2% | residual activity [4]: 96.9% | residual activity [5]: 99.7% | residual activity [6]: 98.8% | residual activity [7]: 91.1% | residual activity [8]: 101% | residual activity [9]: 89.3% | residual activity [10]: 104% | residual activity [11]: 94.5% | residual activity [12]: 112% | residual activity [13]: 98.4% | residual activity [14]: 94.5% | residual activity [15]: 92% | residual activity [16]: 99.5% | residual activity [17]: 102% | residual activity [18]: 97.1% | residual activity [19]: 93% | residual activity [20]: 90.2% | residual activity [21]: 90% | residual activity [22]: 94.9% | residual activity [23]: 104% | residual activity [24]: 99% | residual activity [25]: 98.6% | residual activity [26]: 92.7% | residual activity [27]: 95.2% | residual activity [28]: 61.4% | residual activity [29]: 102% | residual activity [30]: 102% | residual activity [31]: 99.6% | residual activity [32]: 102% | residual activity [33]: 92.2% | residual activity [34]: 106% | residual activity [35]: 99% | residual activity [36]: 104% | residual activity [37]: 45.6% | residual activity [38]: 110% | residual activity [39]: 104% | residual activity [40]: 89% | residual activity [41]: 90.5% | residual activity [42]: 94.7%

O=C1C(Cl)=C(N2C(=O)CCC2=O)C(=O)c2ccccc21
residual activity [1]: 95.4% | residual activity [2]: 103% | residual activity [3]: 111% | residual activity [4]: 99.8% | residual activity [5]: 90.7% | residual activity [6]: 102% | residual activity [7]: 97.9% | residual activity [8]: 96.6% | residual activity [9]: 96.4% | residual activity [10]: 105% | residual activity [11]: 99.1% | residual activity [12]: 114% | residual activity [13]: 88.6% | residual activity [14]: 105% | residual activity [15]: 87.8% | residual activity [16]: 95.4% | residual activity [17]: 105% | residual activity [18]: 101% | residual activity [19]: 147% | residual activity [20]: 107% | residual activity [21]: 102% | residual activity [22]: 95.8% | residual activity [23]: 114% | residual activity [24]: 104% | residual activity [25]: 99.5% | residual activity [26]: 114% | residual activity [27]: 115% | residual activity [28]: 103% | residual activity [29]: 101% | residual activity [30]: 100% | residual activity [31]: 104% | residual activity [32]: 105% | residual activity [33]: 101% | residual activity [34]: 94.5% | residual activity [35]: 87.5% | residual activity [36]: 89.1% | residual activity [37]: 84.7% | residual activity [38]: 94.2% | residual activity [39]: 98.3% | residual activity [40]: 92.4% | residual activity [41]: 99.4% | residual activity [42]: 107%

COc1ccc(S(=O)(=O)N(CCO)c2ccccc2CN(C)C/C=C/c2ccc(Cl)cc2)cc1
residual activity [1]: 93.4% | residual activity [2]: 105% | residual activity [3]: 93.5% | residual activity [4]: 96.5% | residual activity [5]: 96.7% | residual activity [6]: 91% | residual activity [7]: 96.8% | residual activity [8]: 97.5% | residual activity [9]: 99.4% | residual activity [10]: 98.4% | residual activity [11]: 98.2% | residual activity [12]: 100% | residual activity [13]: 86.6% | residual activity [14]: 106% | residual activity [15]: 94.7% | residual activity [16]: 113% | residual activity [17]: 102% | residual activity [18]: 103% | residual activity [19]: 105% | residual activity [20]: 99.6% | residual activity [21]: 99.8% | residual activity [22]: 95.4% | residual activity [23]: 110% | residual activity [24]: 102% | residual activity [25]: 99.8% | residual activity [26]: 97.1% | residual activity [27]: 107% | residual activity [28]: 106% | residual activity [29]: 98% | residual activity [30]: 99.8% | residual activity [31]: 98.6% | residual activity [32]: 101% | residual activity [33]: 120% | residual activity [34]: 95.4% | residual activity [35]: 97.1% | residual activity [36]: 97.2% | residual activity [37]: 103% | residual activity [38]: 97.8% | residual activity [39]: 105% | residual activity [40]: 96.4% | residual activity [41]: 98.4% | residual activity [42]: 108%

Cn1c2ccccc2c2c3c(c4c5ccccc5n(CCC#N)c4c21)CNC3=O
residual activity [1]: 97% | residual activity [2]: 106% | residual activity [3]: 7.95% | residual activity [4]: 55.5% | residual activity [5]: 88.7% | residual activity [6]: 38.2% | residual activity [7]: 55.7% | residual activity [8]: 91.6% | residual activity [9]: 21.1% | residual activity [10]: 73.6% | residual activity [11]: 7.58% | residual activity [12]: 87% | residual activity [13]: 89.9% | residual activity [14]: 26.7% | residual activity [15]: 63.6% | residual activity [16]: 83.9% | residual activity [17]: 97.9% | residual activity [18]: 6.71% | residual activity [19]: 93.3% | residual activity [20]: 83.9% | residual activity [21]: 70.7% | residual activity [22]: 1.18% | residual activity [23]: 76.3% | residual activity [24]: 122% | residual activity [25]: 94% | residual activity [26]: 85.6% | residual activity [27]: 29.9% | residual activity [28]: 33.1% | residual activity [29]: 6.43% | residual activity [30]: 103% | residual activity [31]: 21.9% | residual activity [32]: 57.3% | residual activity [33]: 102% | residual activity [34]: 111% | residual activity [35]: 4.32% | residual activity [36]: 63.5% | residual activity [37]: 96.9% | residual activity [38]: 96.8% | residual activity [39]: 94.2% | residual activity [40]: 84% | residual activity [41]: 24.6% | residual activity [42]: 21.1%
